For one series, the system named is MT-4 cells. The series can be described thus: Test B: Cytotoxicity Assay (protocol of Test A, uninfected cells). The settings on record: uninfected MT-4 cells, 5 days, CellTiter-Glo. The class given is cell-based. As for the experimental part:
(§1) Test B: Cytotoxicity Assay Compound cytotoxicity and the corresponding CC50 values was determined using the same protocol as described in the antiviral assay (Test A) except that uninfected cells were used.
(In general: In ATP-based viability assays light output follows the ATP content of the culture.)

Another series deals with HIV-IIIb. The series can be described thus: Test A: Antiviral Assay in MT4 Cells. In kind it is cell-based, HIV-1. As to conditions: Human immunodeficiency virus 1, IIIB, MT4, 120 h, read-out: % inhibition at 3 μM. As for the experimental part: Test A: Antiviral Assay in MT4 Cells
For the antiviral assay, 40 μL of 1× test concentration of 3-fold serially diluted compound in culture medium with 10% FBS was added to each well of a 384-well plate (10 concentrations) in quadruplicate. MT-4 cells were next mixed with HIV-IIIb at an m.o.i of 0.003 for 1 hour, after which time 35 μL of virus/cell mixture (2000 cells) was immediately added to each well containing 40 μL of diluted compound. The plates were then incubated at 37° C. for 5 days. After 5 days of incubation, 25 μl of 2× concentrated CellTiter-Glo™ Reagent (catalog #G7571, Promega Biosciences, Inc., Madison, Wis.) was added to each well containing MT-4 cells. Cell lysis was carried out by incubating at room temperature for 10 min and then chemiluminescence was read.

Series [1] can be described thus: Test B: Cytotoxicity Assay (protocol of Test A, uninfected cells). In kind it is cell-based. The settings on record: human, uninfected MT-4 cells, CellTiter-Glo. As for the experimental part:
as §1

As usually defined, the CC50 is the concentration at which the toxic effect on the cells reaches its halfway point. Consider `CC(=O)Oc1ccc(-c2ccc(F)c(C(N)=O)c2)c([C@H](Cc2cc(F)cc(F)c2)NC(=O)Cn2nc(C(F)F)c3c2C(F)(F)CCC3(F)F)n1` [Compound 20B, (S)-5-(3-carbamoyl-4-fluorophenyl)-6-(1-(2-(3-(difluoromethyl)-4,4,7,7-tetrafluoro-4,5,6,7-tetrahydro-1H-indazol-1-yl)acetamido)-2-(3,5-difluorophenyl)ethyl)pyridin-2-yl acetate], for which the CC50 in the series on MT-4 cells is above 53.2 µM.
What is called inhibition is how much of the control response was suppressed. For `NC(=O)c1cc(-c2cc(N3C(=O)c4ccccc4C3=O)cnc2[C@H](Cc2cc(F)cc(F)c2)NC(=O)Cn2nc(C(F)F)c3c2C(F)(F)CCC3(F)F)ccc1F` [Compound 32, (S)-5-(2-(1-(2-(3-(difluoromethyl)-4,4,7,7-tetrafluoro-4,5,6,7-tetrahydro-1H-indazol-1-yl)acetamido)-2-(3,5-difluorophenyl)ethyl)-5-(1,3-dioxoisoindolin-2-yl)pyridin-3-yl)-2-fluorobenzamide], the inhibition at 3 µM in the series with HIV-IIIb came out at 37%. The CC50 at 5 days in series [1] was above 53.2 µM.
As to `CN(CCO)c1ccc(-c2ccc(Cl)c3c(NS(C)(=O)=O)nn(C)c23)c([C@H](Cc2cc(F)cc(F)c2)NC(=O)Cn2nc(C(F)(F)F)c3c2C(F)(F)[C@@H]2C[C@H]32)n1` [Compound 58, N—((S)-1-(3-(4-chloro-1-methyl-3-(methylsulfonamido)-1H-indazol-7-yl)-6-((2-hydroxyethyl)(methyl)amino)pyridin-2-yl)-2-(3,5-difluorophenyl)ethyl)-2-((3bS,4aR)-5,5-difluoro-3-(trifluoromethyl)-3b,4,4a,5-tetrahydro-1H-cyclopropa[3,4]cyclopenta[1,2-c]pyrazol-1-yl)acetamide], the inhibition at 3 µM with HIV-IIIb is 86%. The compound also showed a CC50 at 5 days in series [1] of 12.8 µM.

The record behind these values is patent US9050344B2, “Therapeutic compounds” (Gilead Sciences, Inc., priority 2013, dated 2015).
